Entries after “also recorded” stand apart in the source; their conditions may differ.
Legend:
[1] = tested on: STAT5 phosphorylation in CD4+ Treg cells (CD4+/Foxp3+/CD25high); test: STAT5 phosphorylation in CD4+ Treg cells, human PBMC assay by FACS; type: cell-based; settings: for pSTAT5 activity profile compared with benchmark molecules (in words): Treg and CD4+ Tconv cells; for window for selective activation of Treg cells over CD4+ Tconv cells (in words): pSTAT5, Treg versus Tconv
Text: Single amino acid substitutions were introduced to IL-2 at positions corresponding to amino acids interacting with receptor subunit(s) β or γ or By. These substitutions were aimed to reduce IL-2 signaling capacity through the intermediate affinity IL-2Rβγ complex and confer signaling specificity from the high affinity IL-2Rαβγ. IL-2 variants containing single amino acid substitutions were examined for their ability to differentially stimulate STAT5 phosphorylation in CD4 positive Treg and Tconv cells. STAT5 is known to be involved in the downstream signaling cascade upon IL-2 binding to the transmembrane IL-2 receptors. The phosphorylation of STAT5 in defined lymphocyte subpopulations was measured using fresh human peripheral blood mononuclear cells (PBMC) and the forkhead transcription factor FOXP3 was used to identify the Treg population in FACS analysis.
Briefly, human PBMC were isolated by Ficoll-Hypaque centrifugation from the buffy coat of a healthy donor. PBMC were starved in serum-free MACS buffer at 4° C. for 1 hour. 2×10^5 PBMC were then treated with serial dilutions of test compounds for 30 min at 37° C. Cells were fixed and permeabilized with Foxp3/Transcription Factor Staining Buffer Set (EBIO) by incubating with 1× Foxp3 fixation/permeabilization working solution for 30 minutes and washing with 1× permeabilization buffer. Cells were additionally fixed with Cytofix buffer and permeabilized with Perm Buffer III (BD Biosciences) and then washed. After blocking Fc receptors by adding human TruStain™ FcX (1:50 dilution), cells were stained with a mixture of anti-CD25-PE, anti-FOXP3-APC, anti-pSTAT5-FITC, and anti-CD4-PerCP-Cy5.5 antibodies at concentrations recommended by the manufacturer for 45 minutes at room temperature. Cells were collected by centrifugation, washed, resuspended in FACS buffer, and analyzed by flow cytometry. The flow cytometry data was gated into CD4+/Foxp3+/CD25^high and CD4+/Foxp3−/CD25^low groups for the Treg and CD4 conventional T cell subsets, respectively. Data are expressed as a percent of pStat5 positive cells in gated population.

[2] = tested on: regulatory T cells (CD4+CD25+FoxP3+ T cells), effector T cells and NK cells; test: Treg versus effector T and NK cell proliferation and expansion in mice after a single subcutaneous injection; type: in vivo, mouse; settings: 0.3 mg/kg s.c. single dose, C57/BL6 mice; for Treg cell proliferation and expansion (Ki67 positive Treg, % Treg over CD4+ T cells or lymphocytes): days 3, 5, 7
Method: IL-2 variant Fc fusion proteins were administered to mice and their ability to preferentially proliferate and expand regulatory T cells (CD4+CD25+FoxP3+ T cells) over effector T cells and NK cells were determined in vivo.
Female C57/BL6 mice (7-week old) were received from Charles River Laboratory and acclimated in house for at least 7 days before the study. Vehicle (PBS), 0.3 mg/kg of each test compounds, or IL-2 benchmark compounds were subcutaneously administered to mice on day 0. Peripheral blood samples were collected into heparin-treated tubes on days 3, 5 and 7 post-treatment. Each group contained 6 mice and baseline blood was collected 2 days prior to the treatment (day-2). After red blood cell lysis, total viable mononuclear blood cells were counted by trypan blue dead cell exclusion method and proceeded to intracellular staining for immune cell phenotype and Ki67 proliferation markers using flow cytometric analysis. Cells were stained separately with two panels of antibodies as listed: 1) anti-mouse Foxp3-FITC, Ki67-PE, anti-mouse CD25-APC and anti-mouse CD4-Percpcy5.5 (1:50 dilution) for CD4+T-regulatory cells (Treg); 2) anti-mouse CD3-FITC, Ki67-PE, anti-mouse CD335-APC and anti-mouse CD8-Percpcy5.5 (1:50 dilution) for CD8+T and NK cells.

[3] = tested on: delayed-type hypersensitivity (DTH) mouse model; test: KLH-induced delayed-type hypersensitivity (DTH) mouse model, ear thickness; type: in vivo
Method: The ability of Treg cells induced by IL-2 variants to suppress T cell antigen-driven inflammation in vivo was assessed in a model of delayed-type hypersensitivity (DTH). Female Balb/C mice (7-week old) were acclimated in house for 7 days and randomized into groups. Subcutaneous administration of vehicle (PBS), P-0511 at either 0.1 mg/kg or 0.3 mg/kg was initiated on day-2 and was given either once every 3 days (Q3D) for three injections or once every 5 days (Q5D) for two injections. Mice were then sensitized with a subcutaneous administration of 100 μg keyhole limpet hemocyanin (KLH) in 200 μl saline on day 0. For Q3D dosing, two more subcutaneous injections of PBS or P-0511 (0.1 or 0.3 mg/kg) were administered on days 1 and 4; for Q5D dosing, one additional s.c. injection of PBS, 0.1 or 0.3 mg/kg P-0511 was administered on day 3. Mice received an intradermal challenge of KLH (5 μg in 10 μl saline) in right ear on day 5. Right ear thickness was measured using a caliper on day 5 prior KLH challenge and daily from day 6 to day 8 corresponding to 24 h, 48h, and 72 h post KLH challenge. One group of mice also received 5 mg/kg daily i.p. treatment of dexamethasone from day 5 to day 8 as a positive control.
Kinetics of the DTH response using the change in ear thickness relative to baseline values (Δ ear thickness) at various times after KLH challenge was illustrated in FIG. 23.
In a separate study, dose-dependent response of P-0511 (0.1, 0.3 and 1 mg/kg, Q5D) on suppression of KLH-induced DTH was determined and compared with Benchmark-1 (0.3 mg/kg, Q5D).

[4] = tested on: STAT5 phosphorylation in CD4+/Foxp3+/CD25+ Treg, CD4+/Foxp3-/CD25+ CD4 effector and CD4+/Foxp3-/CD25- CD4 naive T cell subsets; test: STAT5 phosphorylation in three CD4+ T cell subsets, human PBMC; type: cell-based; settings: FIG. 9
Method: After human PBMC Cells were treated with serial dilutions of test compounds, fixed and permeabilized, washed, and stained with a mixture of anti-CD25-PE, anti-FOXP3-APC, anti-pSTAT5-FITC, and anti-CD4-PerCP-Cy5.5 antibodies, the flow cytometry analysis was gated into CD4+/Foxp3+/CD25+, CD4+/Foxp3−/CD25+, CD4+/Foxp3−/CD25− groups for the Treg, CD4 effector, and CD4 naive T cell subsets, respectively. Data are expressed as a percent of pSTAT5 positive cells in gated population and illustrated in FIG. 9.

[5] = tested on: Treg cells in blood; test: Pharmacodynamics study in mice following repeated administration (Q3D); type: in vivo, mouse; settings: 0.3 mg/kg s.c. Q3D x3; compared to P-0531 and Benchmark-1
Method: Female Balb/C mice (7-week old) were acclimated in house for 5-7 days before the study. Vehicle (PBS), 0.3 mg/kg of P-0511, P-0512, P-0531, or Benchmark-1 compound were subcutaneously administered to mice (n=5/group) on days 0, 3, and 6. On days 3 and 9, three days after the first injection and multiple (3) injections, respectively, peripheral blood was collected. Based on earlier in vivo experiments, Treg cell activation, proliferation, and expansion were expected to peak on day 3, and thus three days post injection was selected for data collection and analysis. Changes in blood lymphocyte activation, proliferation, and expansion were measured by flow cytometry. P-0531 is the S125I equivalent of the wild type IL-2 fusion protein. The Benchmark-1 contains V91K mutation.

P-0449: Fc fusion protein of IL-2 variant L19S/Q126E; SEQ ID NO: 170
pSTAT5 activity profile compared with benchmark molecules (in words) [1]: on par with Benchmark-3

P-0491: Fc fusion protein of IL-2 variant L19H/S125I; SEQ ID NO: 185
window for selective activation of Treg cells over CD4+ Tconv cells (in words) [1]: without altering Treg selectivity

P-0372: Fc fusion protein of IL-2 variant L19Y; SEQ ID NO: 79
window for selective activation of Treg cells over CD4+ Tconv cells (in words) [1]: modestly improved selective window

P-0303: Fc fusion protein of IL-2 variant Q126E; SEQ ID NO: 88
window for selective activation of Treg cells over CD4+ Tconv cells (in words) [1]: modestly improved selective window

Benchmark-1: benchmark Fc-IL-2 variant fusion protein containing V91K mutation; SEQ ID NO: 191 [reference compound]
Ki67 stimulation on CD8 T cells and NK cells [2]: strong Ki67 stimulation
Treg cell proliferation and expansion (Ki67 positive Treg, % Treg over CD4+ T cells or lymphocytes) [2]: highest potency
inhibition of ear inflammation (KLH-induced DTH), separate study ([3]; 0.3 mg/kg, Q5D): mild inhibition of ear swelling

P-0512: Fc fusion protein of IL-2 variant L19H/S125I/Q126K; SEQ ID NO: 199
pSTAT5 potency and selectivity in Treg, Teff and naive CD4 T cell subsets (in words) [4]: comparable activity profile to Benchmark-1
Ki67 stimulation on CD8 T cells and NK cells [2]: mild Ki67 stimulation
expansion of CD4+ Tconv cells, CD8 T cells or NK cells [2]: No significant expansion
Treg cell proliferation and expansion (Ki67 positive Treg, % Treg over CD4+ T cells or lymphocytes) [2]: stronger in vivo efficacy
Treg cell counts, fold changes relative to PBS and Treg/Tconv ratio [5]: superior capabilities to sustain Treg pool

C[C@@H]1C[C@H]2[C@@H]3CCC4=CC(=O)C=C[C@]4(C)[C@@]3(F)[C@@H](O)C[C@]2(C)[C@@]1(O)C(=O)CO [dexamethasone, reference compound]
inhibition of KLH-induced inflammatory response (ear swelling) ([3]; 5 mg/kg daily i.p., 4 consecutive doses, 72 hours after KLH challenge): ~85%

P-0424: Fc fusion protein of IL-2 variant L19H; SEQ ID NO: 148
window for selective activation of Treg cells over CD4+ Tconv cells (in words) [1]: selective activation of Treg cells over CD4+ Tconv cells

P-0448: Fc fusion protein of IL-2 variant L19Q/Q126E; SEQ ID NO: 169
pSTAT5 activity profile compared with benchmark molecules (in words) [1]: on par with Benchmark-3

P-0514: Fc fusion protein of IL-2 variant L19Q/S125I/Q126E; SEQ ID NO: 201
expansion of CD4+ Tconv cells, CD8 T cells or NK cells [2]: No significant expansion
Treg cell proliferation and expansion (Ki67 positive Treg, % Treg over CD4+ T cells or lymphocytes) [2]: stronger in vivo efficacy

P-0373: Fc fusion protein of IL-2 variant L19N; SEQ ID NO: 80
window for selective activation of Treg cells over CD4+ Tconv cells (in words) [1]: wide window for selective targeting of Treg subset; also recorded: some or significant biased selective window

P-0425: Fc fusion protein of IL-2 variant L19D; SEQ ID NO: 149
window for selective activation of Treg cells over CD4+ Tconv cells (in words) [1]: wide window for selective targeting of Treg subset

Benchmark-3: benchmark Fc-IL-2 variant fusion protein containing N88D; SEQ ID NO: 192 [reference compound]
Ki67 stimulation on CD8 T cells and NK cells [2]: low effects
Treg cell proliferation and expansion (Ki67 positive Treg, % Treg over CD4+ T cells or lymphocytes) [2]: not efficacious

P-0447: Fc fusion protein of IL-2 variant L19H/Q126E; SEQ ID NO: 168
pSTAT5 activity profile compared with benchmark molecules (in words) [1]: on par with Benchmark-3

P-0531: Fc fusion protein of IL-2 variant S125I, the S125I equivalent of wild type P-0250; SEQ ID NO: 162
window for selective activation of Treg cells over CD4+ Tconv cells (in words) [1]: without altering Treg selectivity

P-0363: Fc fusion protein of IL-2 variant D20T; SEQ ID NO: 72
window for selective activation of Treg cells over CD4+ Tconv cells (in words) [1]: some or significant biased selective window
